In patent US7632872B2, “Analgesic agent for newborn or fetal subjects” (Protexeon Limited, priority 2002, dated 2009):
Like-named read-outs stand apart in the source and are kept apart here. Marks after values point to notes of the source that are not given here.

How the values were obtained:
c-Fos positive neurones = experiment: Example 1: formalin hindpaw injection in 7 day neonatal rat pup, cFos positive neurones in dorsal horn; type: in vivo; conditions: 7 day old rat; dorsal horn of spinal cord; 90 minutes after formalin; xenon 70% v/v, nitrous oxide at a normally analgesic dose in the adult rat
Procedure: The analgesic efficacy of xenon was investigated in a neonatal rat pup. A 7 day neonatal rat pup is known to be developmentally equivalent to a human full term fetus with respect to pain processing pathways.
A 7 day old rat was injected with formalin into the hindpaw during exposure to either air or xenon (70% v/v). 90 minutes later the animal was killed and the spinal cord removed; evidence of activation of pain-processing pathways by formalin was sought by counting the number of cFos positive neurones in the dorsal horn of the spinal cord.

[1] = cited from earlier work
rats = conditions: cited from earlier work
Fischer rats = experiment: Formalin plantar test, nociceptive intensity scoring (behaviour); type: in vivo, rat; conditions: for area under curve (AUC) of nociceptive intensity scoring curves: 70% Xe + formalin, AUC over 60 min, mean(SEM), n=3-4
Procedure: (§1) The study protocol was approved by the Home Office (UK), and all efforts were made to minimize animal suffering and the number of animals used. Fischer rats were used for the entire study (B&K Universal, Grimston Aldbrough Hull, UK). The rats were provided ad libitum food and water, and artificial lighting between 6 a.m. and 6 p.m. The age of each animal was determined from the body weight, based on a previously established growth curve (Hashimoto et al., 2002). (The date of birth was defined as 0 day-old.) Experiments were performed on rat pups of 7, 19, 28 day-old and on adult rats (11-12 week-old).
(§2) Within each age-group, there were three cohorts (n=3 - 4) “Air+formalin”, “Xenon+formalin” and “Air+saline” cohorts. In the Air+formalin group, animals exposed to air were injected with 5% formalin into the plantar surface of their left hind paw subcutaneously. In the Xenon+formalin group, animals exposed to 70% Xe/20% O2/10% N2 were injected with 5% formalin as described above. In the Air+saline group, animals exposed to air were injected with saline as above. The volumes of formalin or saline injected were adjusted for each age group as previously reported [Ohashi Y et al, Pain 2002;100:7-18] and were as follows: 10 μl for 7 days old; 15 μl for 19 days old; 20 μl for 28 days old; 50 μl for adults.
(§3) A recirculating system for exposure to the gas was constructed to minimise xenon consumption (FIG. 3). The circuit was flushed with gas (either air or xenon/oxygen/nitrogen) at a flow rate of 4 l/min and after the desired gas concentrations were achieved, the flow rate was reduced to 40 ml/min for the remainder of the experimental period. The carbon dioxide level and the humidity were kept less than 0.6% and 50% respectively with soda lime and silica gel. Formalin or saline was administered 15 min after gas exposure; thereafter, animals were exposed to the gas mixture for a further 90 min.
Immediately after injection of formalin, behavior was recorded for 60 min with a video camera (MegaPixel, Digital Handycam, Sony) positioned approximately 50 cm beneath the floor of the chamber to allow an unobstructed view of the paws (visible via a television monitor) and to facilitate recording of animal behavior. The chamber and holding area for pups waiting to be tested were maintained at room temperature throughout the experiment.
Older rat pups were scored across four categories of pain behavior after xenon administration: no pain (the injected paw was in continuous contact with floor=“0”), favoring (the injected paw rested lightly on the floor=“1”), lifting (the injected paw was elevated all the time=“2”) and licking (licking, biting or shaking of the injected paw=“3”) [Teng C J et al, Pain 1998;76:337-47] and calculated as [Nociceptive score =(T1+[T2×2]+[T3×3])/300, where T1, T2 and T3 are the durations (sec) spent in categories 1, 2 or 3 per 300 sec epoch].
The nociceptive intensity scoring against time in each animal was plotted and the area under curve (over a 60 min time period) (AUC) from each animal was calculated. The mean of c-Fos positive neurons for three representative sections in each region as described above was the aggregate score for each animal. The results of nociceptive intensity or c-Fos positive neurons are reported as means±SEMs. The statistical analysis was performed by one-way analysis of variance, followed by Newman-Keuls test. A p value <0.05 was regarded as statistically significant.

c-Fos expression = experiment: Formalin-induced c-Fos expression at the lumbar level of the spinal cord (immunohistochemistry); type: in vivo, rat; conditions: ipsilateral, 70% Xe; for reduction of c-Fos expression in response to formalin: 7 day-old pups; for suppression of mean c-Fos expression: 19 day-old rats; for depression of c-Fos expression in response to formalin: 28 day-old rats; for inhibition of c-Fos expression: adult rats
Procedure: as §1, §2, §3
Ninety min after the formalin injection, animals were deeply anesthetised with pentobarbital (100 mg/kg, i.p.) and perfused with 4% paraformaldehyde. The whole spinal cord was removed. The lumbar enlargement was sectioned transversely at 30 μm and then was stained for c-Fos as previously described [Ma D et al, Br J Anaesth 2002;89:73946]. Briefly, sections were incubated for 30 min in 0.3% H2O2 in methanol and thereafter washed three times in 0.1M phosphate buffered saline (PBS). Following this, the sections were incubated for 1 hour in a “blocking solution” consisting of 3% donkey serum and 0.3% Triton X in PBS (PBT) and subsequently incubated overnight at 4° C. in 1:5,000 goat anti-c-Fos antibody (sc-52-G, Santa Cruz Biotechnology, Santa Cruz, Calif.) in PBT with 1% donkey serum. The sections were then rinsed 3 times with PBT and incubated with 1:200 donkey anti-goat IgG (Vector laboratories, Burlingame, Calif.) in PBT with 1% Donkey serum for 1 hour. The sections were washed again with PBT and incubated with avidin-biotin-peroxidase complex (Vector Laboratories) in PBT for 1 hour. The sections were rinsed 3 times with PBS and stained with 3,3′-diaminobenzidine (DAB) with nickel ammonium sulphate in which hydrogen peroxide was added (DAB kit, Vector Laboratories). After the staining was completed, the sections were rinsed in PBS followed by distilled water and mounted, dehydrated with 100% ethanol, cleaned with 100% xylene and covered with cover slips.
Photomicrographs of three sections per each animal were scored for c-Fos positive neurons by an observer who was blinded to the experimental treatment. For the purpose of localizing the c-Fos positive cells to functional regions of the spinal cord, each section was divided into A/B (laminae I-II or the superficial area), C (laminae […] or nucleus proprius area), D (laminae V-VI or the neck area and E (laminae VII-Xor the ventral area) [Yi D K et al, Pain 1995;60:257-265]. […]

NMDA receptor = conditions: 80% xenon; cultured hippocampal neurons; cited from earlier work
[2] = in vivo; cited from earlier work
[3] = administration of xenon; cited from earlier work

## [N-]=[N+]=O [N2O, Nitrous oxide]
c-Fos positive neurones
  effect on formalin-induced c-Fos positive neurones: did not change
[1]; humans
  MAC: 104%
rats; animals younger than 23 days old, formalin
  antinociceptive effect (behaviorally and immunohistochemically): no antinociceptive effect
rats; rats under 3 weeks of age
  antinociceptive effects against thermal and inflammatory stimulation: lacks antinociceptive effects

## [Xe] [xenon]
Fischer rats; 7-day-old Fischer rats, P<0.001 vs Air + formalin 11(0.4)
  area under curve (AUC) of nociceptive intensity scoring curves: 0.17(0.04)**
Fischer rats; 19-day-old Fischer rats, P<0.01 vs Air + formalin 88(8)
  area under curve (AUC) of nociceptive intensity scoring curves: 5(0.9)*
Fischer rats; 28-day-old Fischer rats, P<0.001 vs Air + formalin 81(7)
  area under curve (AUC) of nociceptive intensity scoring curves: 1.0(0.3)**
Fischer rats; 7 day-old rats exposed to xenon, 60-min observation period
  nociceptive behaviour after formalin injection: only mild nociceptive behaviour for the first two minutes
Fischer rats; Adult Fischer rats, P<0.001 vs Air + formalin 120(0.7)
  area under curve (AUC) of nociceptive intensity scoring curves: 0.8(0.1)**
c-Fos expression; lamina C, P<0.001
  reduction of c-Fos expression in response to formalin: 50%
c-Fos expression; lamina D, P<0.001
  reduction of c-Fos expression in response to formalin: 50%
c-Fos expression; lamina E, P<0.01
  reduction of c-Fos expression in response to formalin: 28%
c-Fos expression; laminae A/B, P<0.001
  reduction of c-Fos expression in response to formalin: 48%
c-Fos expression; lamina III-IV, P<0.001
  suppression of mean c-Fos expression: 57%
  depression of c-Fos expression in response to formalin: 27%
  inhibition of c-Fos expression: 45%
c-Fos expression; lamina V-VI, P<0.001
  suppression of mean c-Fos expression: 62%
  depression of c-Fos expression in response to formalin: 28%
  inhibition of c-Fos expression: 34%
c-Fos expression; laminae I-II, P<0.001
  suppression of mean c-Fos expression: 55%
  depression of c-Fos expression in response to formalin: 34%
  inhibition of c-Fos expression: 41%
c-Fos positive neurones
  effect on formalin-induced c-Fos positive neurones: almost completely attenuated
NMDA receptor
  reduction of NMDA-activated currents: up to 60%
[1]; elderly female patients
  minimum alveolar concentration (MAC): 51 % atn
[1]; humans
  minimum alveolar concentration (MAC): 71 % atm
[1]; in vivo
  MAC-awake: 33%
[2]
  teratogenic effects: devoid of teratogenic effects
[3]
  inherent neurotoxicity of NMDA antagonists: does not appear to exist
